From PMC10196118, “Evidence for broad cross-reactivity of the SARS-CoV-2 NSP12-directed CD4^+ T-cell response with pre-primed responses directed against common cold coronaviruses” (Frontiers in Immunology, 2023)

Test system: pre-cultured PBMCs (NSP12-specific T cells)
Test: IFN-γ ELISpot with single 15-mer peptides after 11–13 days in vitro peptide-pool T-cell expansion
Assay type: cell-based, human
Conditions: single NSP12 15-mer peptides; for peptide-specific response, donor HH-N12-18, post COVID-19 / peptide-specific response, donor HH-N12-34, post COVID-19 / peptide-specific response, donor HH-N12-35, post COVID-19 / peptide-specific response, donor HH-N12-36, post COVID-19 / peptide-specific response, donor HH-N12-37, post COVID-19: sample post COVID-19; for peptide-specific response, donor HH-N12-18, pre COVID-19 / peptide-specific response, donor HH-N12-34, pre COVID-19 / peptide-specific response, donor HH-N12-35, pre COVID-19 / peptide-specific response, donor HH-N12-36, pre COVID-19 / peptide-specific response, donor HH-N12-37, pre COVID-19: sample pre COVID-19

| Substance | peptide-specific response, donor HH-N12-18, post COVID-19 | peptide-specific response, donor HH-N12-18, pre COVID-19 | peptide-specific response, donor HH-N12-34, post COVID-19 | peptide-specific response, donor HH-N12-34, pre COVID-19 | peptide-specific response, donor HH-N12-35, post COVID-19 | peptide-specific response, donor HH-N12-35, pre COVID-19 | peptide-specific response, donor HH-N12-36, post COVID-19 | peptide-specific response, donor HH-N12-36, pre COVID-19 | peptide-specific response, donor HH-N12-37, post COVID-19 | peptide-specific response, donor HH-N12-37, pre COVID-19 |
| --- | --- | --- | --- | --- | --- | --- | --- | --- | --- | --- |
| TEERLKLFDRYFKYW [compound 56] | 0 | 0 | 0 | 0 | 0 | 0.04 | 0.022 | 0 | 0 | 0 |
| Peptide 110: 15-mer peptide of SARS-CoV-2 NSP12, aa 546-560 | 0 | 0 | 0.023 | 0 | 0 | 0 | 0 | 0 | 0 | 0 |
| LTAESHVDTDLTKPY [compound 51] | 0 | 0 | 0 | 0 | 0 | 0 | 0 | 0.05 | 0 | 0 |
| TPGSGVPVVDSYYSL [compound 46] | 0 | 0 | 0 | 0 | 0 | 0 | 0 | 0 | 0 | 0 |
| KDCPAVAKHDFFKFR [compound 19] | 0 | 0 | 0 | 0 | 0 | 0 | 0 | 0 | 0 | 0 |
| DQTYHPNCVNCLDDR [compound 59] | 0 | 0 | 0 | 0 | 0 | 0 | 0 | 0.047 | 0 | 0 |
| RLYECLYRNRDVDTD [compound 146] | 0 | 0 | 0.023 | 0 | 0 | 0 | 0 | 0 | 0 | 0.02 |
| DLNGNWYDFGDFIQT [compound 43] | 0.035 | 0 | 0 | 0 | 0 | 0 | 0 | 0.028 | 0 | 0 |
| VVKRHTFSNYQHEET [compound 15] | 0 | 0 | 0 | 0 | 0 | 0 | 0 | 0 | 0 | 0 |
| WYDFGDFIQTTPGSG [compound 44] | 0 | 0 | 0 | 0 | 0 | 0 | 0 | 0 | 0 | 0.05 |
| SFLNRVCGVSAARLT [compound 2] | 0 | 0 | 0 | 0 | 0 | 0 | 0 | 0 | 0 | 0 |
| TFSNYQHEETIYNLL [compound 16] | 0 | 0 | 0 | 0 | 0 | 0 | 0 | 0 | 0 | 0 |
